US10399940B2, “Substituted pyrrolidines and methods of use” (AbbVie S.à.r.l., priority 2016, dated 2019)
Read-outs that look alike come from different tables or passages of the source.

Biological target: T1, F508delCFTR (Homo sapiens, UniProt P13569, DEL508-508)
T1 construct: expressed in transfected cells; host or cells: CFBE41o- (human lung derived epithelial cell line), doxycycline-inducible expression
Assay: Cell Surface Expression-Horse Radish Peroxidase (CSE-HRP) assay
Assay type: cell-based
Settings: CFBE41o-F508delCFTR-HRP cells; for Maximum % activity (with co-corrector): with co-corrector (2 μM); for Maximum % activity (with co-corrector) / Maximum % activity (without co-corrector): normalized to on-plate positive control, highest concentration 20 μM
Method: Cell Surface Expression-Horse Radish Peroxidase (CSE-HRP) Assay
A cellular assay for measuring the F508delCFTR cell surface expression after correction with test compounds either without or with a co-corrector (2 μM of 3-[(2R,4R)-4-({[1-(2,2-difluoro-1,3-benzodioxol-5-yl)cyclopropyl]carbonyl}amino)-7-methoxy-3,4-dihydro-2H-chromen-2-yl]benzoic acid), was developed in human lung derived epithelial cell line (CFBE41o-) (Veit G et al, (2012) Mol Biol Cell. 23(21): 4188-4202). The development was achieved by expressing the F508delCFTR mutation along with a horseradish peroxidase (HRP) in the fourth exofacial loop, and then measuring the HRP activity using luminescence readout from these cells, CFBE41o-F508delCFTR-HRP, that were incubated overnight with the test corrector compounds, either without or with the co-corrector. For this primary assay, the CFBE41o-F508delCFTR-HRP cells were plated in 384-well plates (Greiner Bio-one; Cat 781080) at 4,000 cells/well along with 0.5 μg/mL doxycycline to induce the F508delCFTR-HRP expression and further incubated at 37° C., 5% CO2 for 72 hours. The test compounds were then added either without or with a co-corrector at the required concentrations and further incubated for 18-24 hours at 33° C. The highest concentration tested was 20 μM with an 8-point concentration response curve using a 3-fold dilution in both the test compound without or with the co-corrector. Three replicate plates were run to determine one EC50. All plates contained negative controls (dimethyl sulfoxide, DMSO) and positive control (2 μM of 3-[(2R,4R)-4-({[1-(2,2-difluoro-1,3-benzodioxol-5-yl)cyclopropyl]carbonyl}amino)-7-methoxy-3,4-dihydro-2H-chromen-2-yl]benzoic acid) as well as on-plate concentration response of the positive control. Post incubation, the plates were washed 5× times with Dulbecco's phosphate buffered saline (DPBS), followed by the addition of the HRP substrate, luminol (50 μL), and measuring the HRP activity using luminescence readout on EnVision® Multilabel Plate Reader (Perkin Elmer; product number 2104-0010). The raw counts from the experiment were analyzed using Accelrys® Assay Explorer v3.3.
Z′ greater than 0.5 was used as passing quality control criteria for the plates.
The Z′ is defined as: 1−[3*SDPositive Control+3*SDNegative Control/Absolute(MeanPositive Control−MeanNegative Control)] wherein “SD” is standard deviation.
The % activity measured at each of the 8 test concentrations of the test compound added either without or with a co-corrector (2 μM of 3-[(2R,4R)-4-({[1-(2,2-difluoro-1,3-benzodioxol-5-yl)cyclopropyl]carbonyl}amino)-7-methoxy-3,4-dihydro-2H-chromen-2-yl]benzoic acid) was normalized to the on-plate positive control using the following formulae: % activity(Test compound without co-corrector)=[(test compound without co-corrector response−DMSO response)/(positive control response−DMSO response)]*100 % activity(Test compound with co-corrector)=[(test compound with co-corrector response−DMSO response)/(positive control response−DMSO response)]*100
The maximum % activity achieved for the test compound either without or with a co-corrector at any tested concentration is presented in Table 1 along with the respective EC50's calculated using the following general sigmoidal curve with variable Hill slope equation (described as Model 42 in the Accelrys® Assay Explorer v3.3 software): y=(a−d)/(1+(x/c)^b)+d
General sigmoidal curve with concentration, response, top, bottom, EC50 and Hill slope. This model describes a sigmoidal curve with an adjustable baseline, a. The equation can be used to fit curves where response is either increasing or decreasing with respect to the independent variable, “x”. • “x” is a concentration of drug under test. • “y” is the response. • “a” is the maximum response, and “d” is the minimum response • “c” is the inflection point (EC50) for the curve. That is, “y” is halfway between the lower and upper asymptotes when x=c. “b” is the slope-factor or Hill coefficient. […]

[1] = test compound without co-corrector, 18-24 hours at 33° C., read-out: EC50 (without co-corrector)
[2] = with co-corrector (2 μM of 3-[(2R,4R)-4-({[1-(2,2-difluoro-1,3-benzodioxol-5-yl)cyclopropyl]carbonyl}amino)-7-methoxy-3,4-dihydro-2H-chromen-2-yl]benzoic acid), read-out: EC50 (with co-corrector)

T1 sequence (P13569 with tags, fused parts or gaps DEL508-508): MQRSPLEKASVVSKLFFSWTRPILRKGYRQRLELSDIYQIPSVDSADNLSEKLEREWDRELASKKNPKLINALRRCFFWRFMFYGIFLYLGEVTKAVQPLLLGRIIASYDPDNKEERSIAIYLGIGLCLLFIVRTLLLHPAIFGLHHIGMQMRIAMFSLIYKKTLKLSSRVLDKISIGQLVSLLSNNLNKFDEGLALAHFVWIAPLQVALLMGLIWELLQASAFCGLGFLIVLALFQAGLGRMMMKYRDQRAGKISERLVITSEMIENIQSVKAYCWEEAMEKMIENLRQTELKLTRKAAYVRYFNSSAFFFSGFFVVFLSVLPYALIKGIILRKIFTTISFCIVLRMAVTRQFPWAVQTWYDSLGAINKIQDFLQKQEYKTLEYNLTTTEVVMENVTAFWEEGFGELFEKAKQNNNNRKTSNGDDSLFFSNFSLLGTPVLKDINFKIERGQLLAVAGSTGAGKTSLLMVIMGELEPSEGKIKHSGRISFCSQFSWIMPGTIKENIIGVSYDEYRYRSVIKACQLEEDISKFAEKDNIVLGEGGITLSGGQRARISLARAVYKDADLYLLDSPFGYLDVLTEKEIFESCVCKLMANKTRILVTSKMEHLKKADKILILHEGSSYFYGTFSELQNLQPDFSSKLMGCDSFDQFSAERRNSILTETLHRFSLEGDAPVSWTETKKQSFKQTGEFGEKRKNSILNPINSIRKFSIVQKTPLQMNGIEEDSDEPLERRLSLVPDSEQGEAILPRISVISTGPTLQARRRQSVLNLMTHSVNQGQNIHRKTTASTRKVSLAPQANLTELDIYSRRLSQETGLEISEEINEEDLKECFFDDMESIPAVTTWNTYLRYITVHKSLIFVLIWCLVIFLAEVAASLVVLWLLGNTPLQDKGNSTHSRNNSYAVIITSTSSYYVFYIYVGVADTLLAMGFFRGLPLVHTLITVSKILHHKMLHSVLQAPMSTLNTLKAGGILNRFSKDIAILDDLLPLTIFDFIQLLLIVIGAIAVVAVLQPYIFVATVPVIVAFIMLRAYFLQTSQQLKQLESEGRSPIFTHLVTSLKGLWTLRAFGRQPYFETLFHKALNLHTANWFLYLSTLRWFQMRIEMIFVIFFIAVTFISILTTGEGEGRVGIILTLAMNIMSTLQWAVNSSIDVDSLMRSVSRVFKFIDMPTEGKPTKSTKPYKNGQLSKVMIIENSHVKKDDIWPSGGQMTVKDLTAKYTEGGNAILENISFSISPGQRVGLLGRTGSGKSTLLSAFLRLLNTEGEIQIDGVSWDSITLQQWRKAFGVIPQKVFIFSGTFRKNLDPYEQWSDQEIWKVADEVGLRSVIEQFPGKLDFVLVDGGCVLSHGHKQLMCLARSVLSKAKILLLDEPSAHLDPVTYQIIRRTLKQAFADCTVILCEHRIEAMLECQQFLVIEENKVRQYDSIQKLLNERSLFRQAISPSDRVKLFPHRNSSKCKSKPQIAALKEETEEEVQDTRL

SMILES	EC50 [1] [µM]	EC50 [2] [µM]	Maximum % activity (with co-corrector)	Maximum % activity (without co-corrector)
COc1ccc(C(F)(F)F)cc1CO[C@@H]1[C@@H](C(C)(C)C)[C@H](C(=O)O)N(C(=O)[C@@H]2CCC[C@@H](OC)C2)[C@@H]1c1ccccc1 (mixture of isomers) [Example 29, rac-(2R,3S,4R,5R)-3-(tert-butyl)-4-((2-methoxy-5-(trifluoromethyl)benzyl)oxy)-1-((1R,3R)-3-methoxycyclohexanecarbonyl)-5-phenylpyrrolidine-2-carboxylic acid]	1 to 10	1 to 10	+++ (≥350)	+++ (≥200)
CC(C)(C)[C@@H]1C(OCc2cc(Cl)ccc2Cl)[C@@H](c2ccccc2)N(C(=O)CC2CCCC2)[C@H]1C(=O)O (mixture of isomers) [Example 1, rac-(2R,3S,5R)-3-tert-butyl-1-(cyclopentylacetyl)-4-[(2,5-dichlorophenyl)methoxy]-5-phenylpyrrolidine-2-carboxylic acid]	1 to 10	1 to 10	+++ (≥350)	+ (<100)
COc1ccc(C(F)(F)F)cc1COC1[C@@H](c2ccccc2)N(C(=O)C2CCCCC2)[C@@H](C(=O)O)[C@@H]1C(C)(C)C (mixture of isomers) [Example 2, rac-(2R,3S,5R)-3-tert-butyl-1-(cyclohexanecarbonyl)-4-{[2-methoxy-5-(trifluoromethyl)phenyl]methoxy}-5-phenylpyrrolidine-2-carboxylic acid]	1 to 10	1 to 10	+++ (≥350)	++ (≥100 and <200)
COc1ccc(Cl)cc1COC1[C@@H](c2ccccc2)N(C(=O)C2CCCCC2)[C@@H](C(=O)O)[C@@H]1C(C)(C)C (mixture of isomers) [Example 3, rac-(2R,3S,5R)-3-tert-butyl-4-[(5-chloro-2-methoxyphenyl)methoxy]-1-(cyclohexanecarbonyl)-5-phenylpyrrolidine-2-carboxylic acid]	1 to 10	1 to 10	+++ (≥350)	++ (≥100 and <200)
CC(C)(C)[C@@H]1C(OCc2cc(Cl)ccc2Cl)[C@@H](c2ccccc2)N(C(=O)C2CCCCC2)[C@H]1C(=O)O (mixture of isomers) [Example 4, rac-(2R,3S,5R)-3-tert-butyl-1-(cyclohexanecarbonyl)-4-[(2,5-dichlorophenyl)methoxy]-5-phenylpyrrolidine-2-carboxylic acid]	1 to 10	1 to 10	+++ (≥350)	++ (≥100 and <200)
Cc1cc(C(F)(F)F)cc(OC2[C@@H](c3ccccc3)N(C(=O)C3CCCCC3)[C@@H](C(=O)O)[C@@H]2C(C)(C)C)n1 (mixture of isomers) [Example 5, rac-(2R,3S,5R)-3-tert-butyl-1-(cyclohexanecarbonyl)-4-{[6-methyl-4-(trifluoromethyl)pyridin-2-yl]oxy}-5-phenylpyrrolidine-2-carboxylic acid]	1 to 10	1 to 10	+++ (≥350)	++ (≥100 and <200)
COc1cc(OC)nc(OC2[C@@H](c3ccccc3)N(C(=O)N(C(C)C)C(C)C)[C@@H](C(=O)O)[C@@H]2C(C)(C)C)n1 (mixture of isomers) [Example 6, rac-(2R,3S,5R)-3-tert-butyl-4-[(4,6-dimethoxypyrimidin-2-yl)oxy]-1-[di(propan-2-yl)carbamoyl]-5-phenylpyrrolidine-2-carboxylic acid]	1 to 10	1 to 10	+++ (≥350)	+ (<100)
COc1ccc(C(F)(F)F)cc1COC1[C@@H](c2ccccc2)N(C(=O)N(C(C)C)C(C)C)[C@@H](C(=O)O)[C@@H]1C(C)(C)C (mixture of isomers) [Example 7, rac-(2R,3S,5R)-3-tert-butyl-1-[di(propan-2-yl)carbamoyl]-4-{[2-methoxy-5-(trifluoromethyl)phenyl]methoxy}-5-phenylpyrrolidine-2-carboxylic acid]	> 10	> 10	+ (<150)	+ (<100)
COc1ncnc(OC)c1CO[C@@H]1[C@@H](C(C)(C)C)[C@H](C(=O)O)N(C(=O)C2CCCCC2)[C@@H]1c1ccccc1 (racemic) [Example 10, rac-(2R,3S,4R,5R)-3-tert-butyl-1-(cyclohexanecarbonyl)-4-[(4,6-dimethoxypyrimidin-5-yl)methoxy]-5-phenylpyrrolidine-2-carboxylic acid]	1 to 10	1 to 10	+++ (≥350)	+++ (≥200)
COc1cc(OC)nc(CO[C@@H]2[C@@H](C(C)(C)C)[C@H](C(=O)O)N(C(=O)C3CCCCC3)[C@@H]2c2ccccc2)n1 (racemic) [Example 11, rac-(2R,3S,4R,5R)-3-tert-butyl-1-(cyclohexanecarbonyl)-4-[(4,6-dimethoxypyrimidin-2-yl)methoxy]-5-phenylpyrrolidine-2-carboxylic acid]	1 to 10	1 to 10	+++ (≥350)	++ (≥100 and <200)
CN(C)c1ncc(C(F)(F)F)cc1CO[C@@H]1[C@@H](C(C)(C)C)[C@H](C(=O)O)N(C(=O)C2CCCCC2)[C@@H]1c1ccccc1 (racemic) [Example 12, rac-(2R,3S,4R,5R)-3-tert-butyl-1-(cyclohexanecarbonyl)-4-{[2-(dimethylamino)-5-(trifluoromethyl)pyridin-3-yl]methoxy}-5-phenylpyrrolidine-2-carboxylic acid]	1 to 10	1 to 10	+++ (≥350)	++ (≥100 and <200)
COc1ccc(C(F)(F)F)cc1COC1[C@@H](c2ccccc2OC)N(C(=O)C2CCCCC2)[C@@H](C(=O)O)[C@@H]1C(C)(C)C (mixture of isomers) [Example 13, rac-(2R,3S,5R)-3-tert-butyl-1-(cyclohexanecarbonyl)-5-(2-methoxyphenyl)-4-{[2-methoxy-5-(trifluoromethyl)phenyl]methoxy}pyrrolidine-2-carboxylic acid]	1 to 10	1 to 10	+++ (≥350)	+ (<100)
COc1cc(Cl)ccc1COC1[C@@H](c2ccccc2OC)N(C(=O)C2CCCCC2)[C@@H](C(=O)O)[C@@H]1C(C)(C)C (mixture of isomers) [Example 14, rac-(2R,3S,5R)-3-tert-butyl-4-[(4-chloro-2-methoxyphenyl)methoxy]-1-(cyclohexanecarbonyl)-5-(2-methoxyphenyl)pyrrolidine-2-carboxylic acid]	1 to 10	1 to 10	+++ (≥350)	++ (≥100 and <200)
